According to the supplement of paper PMC10307832:

Experiments:
Test in all cases: relative viability (nuclei count vs DMSO), 5 days (fraction); higher = more cells survive
EKVX = system: EKVX
Outline: (§1)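 Each reported value is a median over duplicate plates. It expresses relative viability: treated-well nuclei count divided by vehicle-well nuclei count. Lung cancer cell lines in 1536-well plates were dosed by pin tool a day after seeding, alone with one drug or with a fixed anchor-drug dose plus five library-drug doses (not always all listed) in √10 steps, and nuclei were counted after 5 days.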

NCI-H1755 = system: NCI-H1755
Outline: as §1

NCI-H1734 = system: NCI-H1734
Outline: as §1

NCI-H2342 = system: NCI-H2342
Outline: as §1

NCI-H1993 = system: NCI-H1993
Outline: as §1

NCI-H358 = system: NCI-H358
Outline: as §1

NCI-H838 = system: NCI-H838
Outline: as §1

PC-14 = system: PC-14
Outline: as §1

UMC-11 = system: UMC-11
Outline: as §1

NCI-H2009 = system: NCI-H2009
Outline: as §1

NCI-H647 = system: NCI-H647
Outline: as §1

HARA = system: HARA
Outline: as §1

NCI-H1355 = system: NCI-H1355
Outline: as §1

HOP-62 = system: HOP-62
Outline: as §1

COR-L23 = system: COR-L23
Outline: as §1

NCI-H2228 = system: NCI-H2228
Outline: as §1

NCI-H1793 = system: NCI-H1793
Outline: as §1

NCI-H1395 = system: NCI-H1395
Outline: as §1

NCI-H2347 = system: NCI-H2347
Outline: as §1

HCC-15 = system: HCC-15
Outline: as §1

SK-MES-1 = system: SK-MES-1
Outline: as §1

NCI-H2170 = system: NCI-H2170
Outline: as §1

COR-L 105 = system: COR-L 105
Outline: as §1

CC1(C)CCC(c2ccc(Cl)cc2)=C(CN2CCN(c3ccc(C(=O)NS(=O)(=O)c4ccc(N[C@H](CCN5CCOCC5)CSc5ccccc5)c(S(=O)(=O)C(F)(F)F)c4)cc3)CC2)C1 [Navitoclax] + Nc1nc2[nH]cc(CCc3ccc(C(=O)N[C@@H](CCC(=O)O)C(=O)O)cc3)c2c(=O)[nH]1 [Pemetrexed] (partner 0.2 µM)
relative viability (EKVX; first compound 0.005 µM): 0.433 | relative viability (EKVX; first compound 0.01581 µM): 0.389 | relative viability (EKVX; first compound 0.05 µM): 0.4 | relative viability (EKVX; first compound 0.1581 µM): 0.387 | relative viability (EKVX; first compound 0.5 µM): 0.366 | relative viability (NCI-H1755; first compound 0.005 µM): 0.371 | relative viability (NCI-H1755; first compound 0.01581 µM): 0.419 | relative viability (NCI-H1755; first compound 0.05 µM): 0.426 | relative viability (NCI-H1755; first compound 0.1581 µM): 0.351 | relative viability (NCI-H1755; first compound 0.5 µM): 0.433 | relative viability (NCI-H1734; first compound 0.005 µM): 0.394 | relative viability (NCI-H1734; first compound 0.01581 µM): 0.421 | relative viability (NCI-H1734; first compound 0.1581 µM): 0.367 | relative viability (NCI-H1734; first compound 0.5 µM): 0.381 | relative viability (NCI-H2342; first compound 0.005 µM): 0.818 | relative viability (NCI-H2342; first compound 0.01581 µM): 0.81 | relative viability (NCI-H2342; first compound 0.05 µM): 0.805 | relative viability (NCI-H2342; first compound 0.1581 µM): 0.719 | relative viability (NCI-H2342; first compound 0.5 µM): 0.763 | relative viability (NCI-H1993; first compound 0.005 µM): 0.616 | relative viability (NCI-H1993; first compound 0.01581 µM): 0.701 | relative viability (NCI-H1993; first compound 0.05 µM): 0.474 | relative viability (NCI-H1993; first compound 0.1581 µM): 0.653 | relative viability (NCI-H1993; first compound 0.5 µM): 0.677 | relative viability (NCI-H358; first compound 0.005 µM): 0.17 | relative viability (NCI-H358; first compound 0.01581 µM): 0.173 | relative viability (NCI-H358; first compound 0.05 µM): 0.167 | relative viability (NCI-H358; first compound 0.1581 µM): 0.165 | relative viability (NCI-H358; first compound 0.5 µM): 0.187 | relative viability (NCI-H838; first compound 0.005 µM): 0.242 | relative viability (NCI-H838; first compound 0.01581 µM): 0.254 | relative viability (NCI-H838; first compound 0.05 µM): 0.28 | relative viability (NCI-H838; first compound 0.1581 µM): 0.266 | relative viability (NCI-H838; first compound 0.5 µM): 0.244 | relative viability (PC-14; first compound 0.005 µM): 0.133 | relative viability (PC-14; first compound 0.01581 µM): 0.118 | relative viability (PC-14; first compound 0.05 µM): 0.136 | relative viability (PC-14; first compound 0.1581 µM): 0.108 | relative viability (PC-14; first compound 0.5 µM): 0.105 | relative viability (UMC-11; first compound 0.005 µM): 0.79 | relative viability (UMC-11; first compound 0.01581 µM): 0.822 | relative viability (UMC-11; first compound 0.05 µM): 0.821 | relative viability (UMC-11; first compound 0.1581 µM): 0.759 | relative viability (UMC-11; first compound 0.5 µM): 0.444 | relative viability (NCI-H2009; first compound 0.005 µM): 0.997 | relative viability (NCI-H2009; first compound 0.01581 µM): 1.03 | relative viability (NCI-H2009; first compound 0.05 µM): 1.03 | relative viability (NCI-H2009; first compound 0.1581 µM): 1.04 | relative viability (NCI-H2009; first compound 0.5 µM): 1.01 | relative viability (NCI-H647; first compound 0.005 µM): 0.166 | relative viability (NCI-H647; first compound 0.01581 µM): 0.175 | relative viability (NCI-H647; first compound 0.05 µM): 0.163 | relative viability (NCI-H647; first compound 0.1581 µM): 0.14 | relative viability (NCI-H647; first compound 0.5 µM): 0.128 | relative viability (HARA; first compound 0.005 µM): 0.189 | relative viability (HARA; first compound 0.01581 µM): 0.232 | relative viability (HARA; first compound 0.05 µM): 0.255 | relative viability (HARA; first compound 0.1581 µM): 0.236 | relative viability (HARA; first compound 0.5 µM): 0.218 | relative viability (NCI-H1355; first compound 0.005 µM): 0.998 | relative viability (NCI-H1355; first compound 0.01581 µM): 1.05 | relative viability (NCI-H1355; first compound 0.05 µM): 1.11 | relative viability (NCI-H1355; first compound 0.1581 µM): 1.03 | relative viability (NCI-H1355; first compound 0.5 µM): 1.07 | relative viability (HOP-62; first compound 0.005 µM): 0.326 | relative viability (HOP-62; first compound 0.01581 µM): 0.299 | relative viability (HOP-62; first compound 0.05 µM): 0.323 | relative viability (HOP-62; first compound 0.1581 µM): 0.27 | relative viability (HOP-62; first compound 0.5 µM): 0.27 | relative viability (COR-L23; first compound 0.005 µM): 0.208 | relative viability (COR-L23; first compound 0.01581 µM): 0.188 | relative viability (COR-L23; first compound 0.05 µM): 0.221 | relative viability (COR-L23; first compound 0.1581 µM): 0.179 | relative viability (COR-L23; first compound 0.5 µM): 0.201 | relative viability (NCI-H2228; first compound 0.005 µM): 0.314 | relative viability (NCI-H2228; first compound 0.01581 µM): 0.306 | relative viability (NCI-H2228; first compound 0.1581 µM): 0.336 | relative viability (NCI-H2228; first compound 0.5 µM): 0.31 | relative viability (NCI-H1793; first compound 0.005 µM): 0.72 | relative viability (NCI-H1793; first compound 0.01581 µM): 1.09 | relative viability (NCI-H1793; first compound 0.1581 µM): 0.828 | relative viability (NCI-H1793; first compound 0.5 µM): 0.643 | relative viability (NCI-H1395; first compound 0.005 µM): 0.763 | relative viability (NCI-H1395; first compound 0.01581 µM): 0.853 | relative viability (NCI-H1395; first compound 0.05 µM): 0.94 | relative viability (NCI-H1395; first compound 0.1581 µM): 0.86 | relative viability (NCI-H1395; first compound 0.5 µM): 0.913 | relative viability (NCI-H2347; first compound 0.005 µM): 0.443 | relative viability (NCI-H2347; first compound 0.01581 µM): 0.439 | relative viability (NCI-H2347; first compound 0.05 µM): 0.411 | relative viability (NCI-H2347; first compound 0.1581 µM): 0.427 | relative viability (NCI-H2347; first compound 0.5 µM): 0.437 | relative viability (HCC-15; first compound 0.005 µM): 0.227 | relative viability (HCC-15; first compound 0.01581 µM): 0.26 | relative viability (HCC-15; first compound 0.05 µM): 0.218 | relative viability (HCC-15; first compound 0.1581 µM): 0.228 | relative viability (HCC-15; first compound 0.5 µM): 0.229 | relative viability (SK-MES-1; first compound 0.005 µM): 0.913 | relative viability (SK-MES-1; first compound 0.01581 µM): 1.05 | relative viability (SK-MES-1; first compound 0.05 µM): 1.03 | relative viability (SK-MES-1; first compound 0.1581 µM): 0.884 | relative viability (SK-MES-1; first compound 0.5 µM): 0.927 | relative viability (NCI-H2170; first compound 0.005 µM): 0.292 | relative viability (NCI-H2170; first compound 0.01581 µM): 0.272 | relative viability (NCI-H2170; first compound 0.05 µM): 0.273 | relative viability (NCI-H2170; first compound 0.1581 µM): 0.266 | relative viability (NCI-H2170; first compound 0.5 µM): 0.254 | relative viability (COR-L 105; first compound 0.005 µM): 0.979 | relative viability (COR-L 105; first compound 0.01581 µM): 1.35 | relative viability (COR-L 105; first compound 0.05 µM): 0.921 | relative viability (COR-L 105; first compound 0.1581 µM): 1.13 | relative viability (COR-L 105; first compound 0.5 µM): 1.17
